Assay [1] deals with endogenously senescent human primary fibroblasts (P4, P7, P9, P12 passage cells). The experiment in a line: Anti-aging efficacy evaluation of VC on endogenously senescent (naturally senescent) cells, proliferation-promoting effect (ATP detection). Type of assay: cell-based. The settings on record: endogenous senescence, 10 ug/mL VC, 48 h.
Excerpt: […]

Assay [2] deals with exogenously senescent human primary fibroblasts (UVA-P4, UVA-P7, UVA-P9 passage cells). The experiment in a line: Anti-aging efficacy evaluation of VC on exogenously senescent (light aging) cells, proliferation-promoting effect (ATP detection). The settings on record: exogenous senescence (light aging), 10 ug/mL VC, 48 h. In kind it is cell-based.
Excerpt: […]

This passage reports proliferation-promoting effect results from US20260139241A1, “METHOD FOR CONSTRUCTING SENESCENT CELLSAND METHOD FOR EVALUATING ANTI-SENESCENCE EFFICACY” (JAKA BIOTECH Co,.Ltd., priority 2022, published 2026).

Take `O=C1O[C@H]([C@@H](O)CO)C(O)=C1O` [VC]: the proliferation-promoting effect result was “relatively poor proliferation-promoting effect” in assay [1] (early-stage senescent cells (P7)); “relatively significant proliferation-promoting effect” in assay [1] (growth-stage cells (P4)); “basically no proliferation-promoting effect” in assay [1] (late-stage senescent cells (P12)); “basically no proliferation-promoting effect” in assay [1] (middle-stage senescent cells (P9)); “relatively significant proliferation-promoting effect” in assay [2] (early-stage senescent cells (UVA-P4)); “no proliferation-promoting effect” in assay [2] (late-stage senescent cells (UVA-P9)). The proliferation-promoting effect result in assay [2] (middle-stage senescent cells (UVA-P7)) was “relatively poor proliferation-promoting effect”.
